From the supplement of paper PMC10883282

Key:
Experiment in all cases: relative viability vs DMSO control (72 h) (fraction); higher = more viable cells
[1] = tested on: SW872
In short: (§1)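 ATPLite readings, expressed as percent growth and averaged over up to triplicate wells, provided relative viability. Before reading, sarcoma cell lines seeded in 384-well plates to reach 80–90% confluence received 2.5 µl of serially diluted compound after 24 h, from source plates of 10 mM to 0.0002 mM. Plates were held 72 h at 37 °C, 5% CO2, with 0.1% DMSO as vehicle and a 5 µM positive control. The data were rescaled to 1 for full and 0 for none.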

[2] = tested on: SW684
In short: as §1

[3] = tested on: HT1080
In short: as §1

[4] = tested on: A204
In short: as §1

[5] = tested on: SK-LMS-1
In short: as §1

[6] = tested on: RD-ES
In short: as §1

[7] = tested on: SK-ES-1
In short: as §1

[8] = tested on: SW982
In short: as §1

[9] = tested on: VA-ES-BJ
In short: as §1

[10] = tested on: G401
In short: as §1

[11] = tested on: HS729
In short: as §1

[12] = tested on: KHOS-NP
In short: as §1

CN1CC[C@@H](NC(=O)Nc2ccc(C#N)cc2)C[C@@H]1c1nc2ccccc2[nH]1 [Glasdegib]
Conditions | relative viability
[1], 0.00017 µM | 1.08
[1], 0.00051 µM | 1.07
[1], 0.00152 µM | 1.08
[1], 0.00457 µM | 1.06
[1], 0.01372 µM | 1.06
[1], 0.04115 µM | 1.05
[1], 0.1235 µM | 1.06
[1], 0.3704 µM | 1.066
[1], 1.111 µM | 1.05
[1], 3.333 µM | 1.06
[1], 10 µM | 1.06
[2], 0.00017 µM | 1.165
[2], 0.00051 µM | 1.14
[2], 0.00152 µM | 1.19
[2], 0.00457 µM | 1.15
[2], 0.01372 µM | 1.16
[2], 0.04115 µM | 1.177
[2], 0.1235 µM | 1.12
[2], 0.3704 µM | 1.2
[2], 1.111 µM | 1.12
[2], 3.333 µM | 1.12
[2], 10 µM | 1.12
[3], 0.00017 µM | 1.07
[3], 0.00051 µM | 1.091
[3], 0.00152 µM | 1.112
[3], 0.00457 µM | 1.09
[3], 0.01372 µM | 1.09
[3], 0.04115 µM | 1.112
[3], 0.1235 µM | 1.1
[3], 0.3704 µM | 1.087
[3], 1.111 µM | 1.07
[3], 3.333 µM | 1.054
[3], 10 µM | 1.01
[4], 0.00017 µM | 1.07
[4], 0.00051 µM | 1.074
[4], 0.00152 µM | 1.09
[4], 0.00457 µM | 1.06
[4], 0.01372 µM | 1.09
[4], 0.04115 µM | 1.06
[4], 0.1235 µM | 1.064
[4], 0.3704 µM | 1.05
[4], 1.111 µM | 1.04
[4], 3.333 µM | 1.02
[4], 10 µM | 0.975
[5], 0.00017 µM | 1.08
[5], 0.00051 µM | 1.09
[5], 0.00152 µM | 1.111
[5], 0.00457 µM | 1.07
[5], 0.01372 µM | 1.14
[5], 0.04115 µM | 1.11
[5], 0.1235 µM | 1.09
[5], 0.3704 µM | 1.06
[5], 1.111 µM | 1.07
[5], 3.333 µM | 1.02
[5], 10 µM | 1.03
[6], 0.00017 µM | 0.9823
[6], 0.00051 µM | 0.963
[6], 0.00152 µM | 0.9569
[6], 0.00457 µM | 0.968
[6], 0.01372 µM | 0.96
[6], 0.04115 µM | 0.923
[6], 0.1235 µM | 0.924
[6], 0.3704 µM | 0.926
[6], 1.111 µM | 0.924
[6], 3.333 µM | 0.934
[6], 10 µM | 0.891
[7], 0.00017 µM | 1
[7], 0.00051 µM | 1.03
[7], 0.00152 µM | 1
[7], 0.00457 µM | 1.02
[7], 0.01372 µM | 1.01
[7], 0.04115 µM | 0.965
[7], 0.1235 µM | 0.944
[7], 0.3704 µM | 0.975
[7], 1.111 µM | 0.944
[7], 3.333 µM | 0.77
[7], 10 µM | 0.696
[8], 0.00017 µM | 0.988
[8], 0.00051 µM | 0.993
[8], 0.00152 µM | 1
[8], 0.00457 µM | 1.03
[8], 0.01372 µM | 1
[8], 0.04115 µM | 0.971
[8], 0.1235 µM | 1.004
[8], 0.3704 µM | 0.985
[8], 1.111 µM | 1.02
[8], 3.333 µM | 1.02
[8], 10 µM | 0.992
[9], 0.00017 µM | 1.07
[9], 0.00051 µM | 1.07
[9], 0.00152 µM | 1.06
[9], 0.00457 µM | 1.068
[9], 0.01372 µM | 1.07
[9], 0.04115 µM | 1.06
[9], 0.1235 µM | 1.05
[9], 0.3704 µM | 1.04
[9], 1.111 µM | 1.01
[9], 3.333 µM | 1.08
[9], 10 µM | 1.06
[10], 0.00017 µM | 1.04
[10], 0.00051 µM | 1.03
[10], 0.00152 µM | 1.02
[10], 0.00457 µM | 1.02
[10], 0.01372 µM | 1.03
[10], 0.04115 µM | 1.03
[10], 0.1235 µM | 1.02
[10], 0.3704 µM | 0.986
[10], 1.111 µM | 0.997
[10], 3.333 µM | 0.949
[10], 10 µM | 0.934
[11], 0.00017 µM | 1.07
[11], 0.00051 µM | 1.02
[11], 0.00152 µM | 1.05
[11], 0.00457 µM | 0.993
[11], 0.01372 µM | 1.02
[11], 0.04115 µM | 1.05
[11], 0.1235 µM | 1.03
[11], 0.3704 µM | 0.984
[11], 1.111 µM | 1.03
[11], 3.333 µM | 0.993
[11], 10 µM | 1.03
[12], 0.00017 µM | 1.09
[12], 0.00051 µM | 1.1
[12], 0.00152 µM | 1.1
[12], 0.00457 µM | 1.11
[12], 0.01372 µM | 0.779
[12], 0.04115 µM | 1.1
[12], 0.1235 µM | 1.108
[12], 0.3704 µM | 1.12
[12], 1.111 µM | 1.11
[12], 3.333 µM | 1.085
[12], 10 µM | 1.02

CNC(=O)c1ccccc1Sc1ccc2c(/C=C/c3ccccn3)n[nH]c2c1 [Axitinib]
Conditions | relative viability
[1], 0.00017 µM | 1.08
[1], 0.00051 µM | 1.04
[1], 0.00152 µM | 1.06
[1], 0.00457 µM | 1.08
[1], 0.01372 µM | 1.05
[1], 0.04115 µM | 1.03
[1], 0.1235 µM | 0.981
[1], 0.3704 µM | 0.902
[1], 1.111 µM | 0.779
[1], 3.333 µM | 0.511
[1], 10 µM | 0.213
[2], 0.00017 µM | 1.17
[2], 0.00051 µM | 1.17
[2], 0.00152 µM | 1.21
[2], 0.00457 µM | 1.188
[2], 0.01372 µM | 1.19
[2], 0.04115 µM | 1.15
[2], 0.1235 µM | 1.14
[2], 0.3704 µM | 1.12
[2], 1.111 µM | 1.14
[2], 3.333 µM | 0.978
[2], 10 µM | 0.493
[3], 0.00017 µM | 1.1
[3], 0.00051 µM | 1.06
[3], 0.00152 µM | 1.1
[3], 0.00457 µM | 1.1
[3], 0.01372 µM | 1.13
[3], 0.04115 µM | 1.11
[3], 0.1235 µM | 1.08
[3], 0.3704 µM | 1
[3], 1.111 µM | 1.04
[3], 3.333 µM | 0.979
[3], 10 µM | 0.388
[4], 0.00017 µM | 1.04
[4], 0.00051 µM | 1.07
[4], 0.00152 µM | 1.03
[4], 0.00457 µM | 0.942
[4], 0.01372 µM | 0.77
[4], 0.04115 µM | 0.484
[4], 0.1235 µM | 0.405
[4], 0.3704 µM | 0.359
[4], 1.111 µM | 0.289
[4], 3.333 µM | 0.159
[4], 10 µM | 0.0338
[5], 0.00017 µM | 1.11
[5], 0.00051 µM | 1.14
[5], 0.00152 µM | 1.12
[5], 0.00457 µM | 1.09
[5], 0.01372 µM | 1.1
[5], 0.04115 µM | 1.09
[5], 0.1235 µM | 1.17
[5], 0.3704 µM | 1.17
[5], 1.111 µM | 1.18
[5], 3.333 µM | 1.13
[5], 10 µM | 0.55
[6], 0.00017 µM | 0.962
[6], 0.00051 µM | 0.92
[6], 0.00152 µM | 0.938
[6], 0.00457 µM | 0.947
[6], 0.01372 µM | 0.94
[6], 0.04115 µM | 0.963
[6], 0.1235 µM | 0.938
[6], 0.3704 µM | 0.871
[6], 1.111 µM | 0.85
[6], 3.333 µM | 0.729
[6], 10 µM | 0.0832
[7], 0.00017 µM | 0.9896
[7], 0.00051 µM | 1.06
[7], 0.00152 µM | 1.03
[7], 0.00457 µM | 1.02
[7], 0.01372 µM | 1.01
[7], 0.04115 µM | 0.969
[7], 0.1235 µM | 0.943
[7], 0.3704 µM | 0.829
[7], 1.111 µM | 0.837
[7], 3.333 µM | 0.499
[7], 10 µM | 0.0154
[8], 0.00017 µM | 0.998
[8], 0.00051 µM | 0.997
[8], 0.00152 µM | 1
[8], 0.00457 µM | 1.02
[8], 0.01372 µM | 0.991
[8], 0.04115 µM | 1.015
[8], 0.1235 µM | 0.9984
[8], 0.3704 µM | 0.96
[8], 1.111 µM | 0.922
[8], 3.333 µM | 0.409
[8], 10 µM | 0.0993
[9], 0.00017 µM | 1.11
[9], 0.00051 µM | 1.097
[9], 0.00152 µM | 1.11
[9], 0.00457 µM | 1.12
[9], 0.01372 µM | 1.09
[9], 0.04115 µM | 1.08
[9], 0.1235 µM | 1.05
[9], 0.3704 µM | 0.9867
[9], 1.111 µM | 0.977
[9], 3.333 µM | 0.61
[9], 10 µM | 0.263
[10], 0.00017 µM | 1.04
[10], 0.00051 µM | 1.04
[10], 0.00152 µM | 1.02
[10], 0.00457 µM | 1.01
[10], 0.01372 µM | 0.979
[10], 0.04115 µM | 0.963
[10], 0.1235 µM | 0.942
[10], 0.3704 µM | 0.854
[10], 1.111 µM | 0.806
[10], 3.333 µM | 0.456
[10], 10 µM | 0.0633
[11], 0.00017 µM | 1.09
[11], 0.00051 µM | 1.03
[11], 0.00152 µM | 1.04
[11], 0.00457 µM | 0.987
[11], 0.01372 µM | 0.909
[11], 0.04115 µM | 0.916
[11], 0.1235 µM | 0.929
[11], 0.3704 µM | 0.861
[11], 1.111 µM | 0.698
[11], 3.333 µM | 0.271
[11], 10 µM | 0.111
[12], 0.00017 µM | 1.08
[12], 0.00051 µM | 1.12
[12], 0.00152 µM | 1.12
[12], 0.00457 µM | 1.12
[12], 0.01372 µM | 1.12
[12], 0.04115 µM | 1.106
[12], 0.1235 µM | 1.07
[12], 0.3704 µM | 1.01
[12], 1.111 µM | 0.986
[12], 3.333 µM | 0.827
[12], 10 µM | 0.405
